Data from patent US20210171604A1, “PEPTIDES FOR THE TREATMENT OF TYPE 2 DIABETES” (YISSUM RESEARCH DEVELOPMENT COMPANY OF THE HEBREW …, priority 2017, published 2021).
Marks after values point to notes of the source that are not given here. [ ]: non-standard residue; d: D form. The star is where a group is joined. Stearoyl = CCCCCCCCCCCCCCCCCC(=O)*; Myristoyl = CCCCCCCCCCCCCC(=O)*; Nle = CCCC[C@H](N)C(=O)O; Nva = CCC[C@H](N)C(=O)O

Experiments:
male C57BL mice = test: Inhibition of starvation-induced insulin resistance (blood glucose after 8 h starvation); format: in vivo; details: for inhibition of insulin-resistance developed in the course of starvation: i.p. ~35 mg/kg, 8 h starvation, compared to vehicle; for % blood glucose decrease following 8 h starvation / Mean blood glucose after 8 h starvation (% of time 0): i.p. 1 mg/mouse (~35 mg/kg); for % blood glucose decrease following 8 h starvation: compared with time 0; for inhibition of starvation-induced insulin-resistance (words, FIG. 1): Example 5, 20 mg/kg i.p., relative change in blood glucose compared to time 0 (=100%); for Mean blood glucose after 8 h starvation (% of time 0): level after 8 h starvation compared to t0 (=100%), vehicle 90.3
Protocol: Protocol: Blood glucose was measured in the morning (time 0). The mice were then injected intraperitoneally with a peptide (1 mg/mouse=˜35 mg/kg) or with a vehicle and placed in a cage with water but no food. After 8 hrs starvation, blood glucose was measured again and the mice were supplied with food. […]
The ability of the peptides ACD-403.3, ACD-047.7 and ACD-040.2 described in Example 1 above, to inhibit insulin-resistance induced by starvation was tested in mice (male C57BL mice ˜9-10 wks old).
Peptides' solutions for injection were prepared as follows: 5 mg peptide were dissolved in 1 ml of a solution composed of 5% hydroxypropyl-beta-cyclodextrin (HPβCD)+2% Propylene glycol (PG)+2% Tween-80 in DDW (Wt/Vol). If needed, the solution was warmed up to 80° C. to facilitate peptide solubilization. 0.2 ml of this solution, or from a vehicle (no peptide), were injected i.p. into the mice.
The results, summarized in Table 4 below, are expressed as % change in blood glucose level after 8 h starvation, compared to t0 (=100%), as well as % decrease in blood glucose after 8 hrs starvation, compared with blood glucose at time 0. A higher decrease in glucose levels in the blood indicates better intake of glucose by cells, which reflects better inhibition of the starvation-induced insulin resistance. […]

[1] = system: obese diabetic mice (db/db); test: Blood glucose response of obese diabetic (db/db) mice to peptide treatment; format: in vivo; details: for Blood glucose: mean, n=3; for % change from time point (−4) in blood glucose: compared to first baseline (241 mg/dL)
Protocol: ACD-004 was tested for its effect on hyperglycemia in obese diabetic mice (db/db).
Protocol: Mice (n=3) were kept on normal, unlimited diet. Prior to peptide treatment, baseline measurements of blood glucose and body weight were taken every ˜3 weeks through a period of 2.5 months (see time points (−1)-(−4) in Table 3 below). Injections of the peptide (intraperitoneally, ˜35 mg/kg) started on time point 0 and continued on time points 1 and 2, twice a day. Blood glucose and body weight were measured at the indicated days.
The results, summarized in Table 3, are expressed as mean % change in blood glucose compared to the first baseline measurement (time point (−4)).
Mice (n=16) were kept on normal, unlimited diet. Injections of the peptide (i.p., 20 mg/kg, n=9) or vehicle (i.p., n=7) started at 3-4 m of age (time point ‘0’) and continued for 3 days, once a day. In a similar experiment the peptide […] were injected to mice with severe diabetes for 7 days.

[2] = DMSO/Brij-97 vehicle, vehicle 14%
[3] = HPβCD/PG/Tween-80 vehicle, vehicle 9.7%

## Myr-G-F-T-K-G-Q-V-T-NH2 (Myristoyl-GFTKGQVT-NH2; SMILES CCCCCCCCCCCCCC(=O)NCC(=O)N[C@@H](Cc1ccccc1)C(=O)N[C@H](C(=O)N[C@@H](CCCCN)C(=O)NCC(=O)N[C@@H](CCC(N)=O)C(=O)N[C@H](C(=O)N[C@H](C(N)=O)[C@@H](C)O)C(C)C)[C@@H](C)O) [ACD-005, myristoylated, amidated peptide derived from h-HIF1α]
Male C57BL mice; Example 2
  inhibition of insulin-resistance developed in the course of starvation: effectively inhibited insulin-resistance
Male C57BL mice; [2]
  % blood glucose decrease following 8 h starvation: 49%

## Myr-G-R-N-F-Q-K-G-Q-V-T-R-NH2 (Myristoyl-GRNFQKGQVTR-NH2; SMILES CCCCCCCCCCCCCC(=O)NCC(=O)N[C@@H](CCCNC(=N)N)C(=O)N[C@@H](CC(N)=O)C(=O)N[C@@H](Cc1ccccc1)C(=O)N[C@@H](CCC(N)=O)C(=O)N[C@@H](CCCCN)C(=O)NCC(=O)N[C@@H](CCC(N)=O)C(=O)N[C@H](C(=O)N[C@H](C(=O)N[C@@H](CCCNC(=N)N)C(N)=O)[C@@H](C)O)C(C)C) [ACD-004, myristoylated, C-terminally amidated peptide derived from h-HO-1]
Male C57BL mice; Example 2
  inhibition of insulin-resistance developed in the course of starvation: effectively inhibited insulin-resistance
Male C57BL mice; [2]
  % blood glucose decrease following 8 h starvation: 47%
[1]; ACD-004 i.p. ~35 mg/kg twice a day at time points 0-2, time point 3, age 18.3 wks
  Blood glucose: 105 mg/dL
[1]; ACD-004 i.p. ~35 mg/kg twice a day from time point 0, time point 1, age 17.9 wks
  Blood glucose: 177 mg/dL
[1]; ACD-004 i.p. ~35 mg/kg twice a day from time point 0, time point 2, age 18.1 wks
  Blood glucose: 139 mg/dL
[1]; Example 3, i.p. ~35 mg/kg twice a day
  effect on blood glucose levels in diabetic mice: effectively reduced blood glucose levels
[1]; time point 1
  % change from time point (−4) in blood glucose: −27%
[1]; time point 2
  % change from time point (−4) in blood glucose: −42%
[1]; time point 3
  % change from time point (−4) in blood glucose: −56%

## Myr-G-R-N-I-Q-K-G-Q-V-T-R-NH2 (Myristoyl-GRNIQKGQVTR-NH2; SMILES CCCCCCCCCCCCCC(=O)NCC(=O)N[C@@H](CCCNC(=N)N)C(=O)N[C@@H](CC(N)=O)C(=O)N[C@H](C(=O)N[C@@H](CCC(N)=O)C(=O)N[C@@H](CCCCN)C(=O)NCC(=O)N[C@@H](CCC(N)=O)C(=O)N[C@H](C(=O)N[C@H](C(=O)N[C@@H](CCCNC(=N)N)C(N)=O)[C@@H](C)O)C(C)C)[C@@H](C)CC) [ACD-047.8]
Male C57BL mice
  inhibition of starvation-induced insulin-resistance (words, FIG. 1): inactive

## Myr-G-R-N-L-Q-K-G-Q-V-T-R-NH2 (Myristoyl-GRNLQKGQVTR-NH2; SMILES CCCCCCCCCCCCCC(=O)NCC(=O)N[C@@H](CCCNC(=N)N)C(=O)N[C@@H](CC(N)=O)C(=O)N[C@@H](CC(C)C)C(=O)N[C@@H](CCC(N)=O)C(=O)N[C@@H](CCCCN)C(=O)NCC(=O)N[C@@H](CCC(N)=O)C(=O)N[C@H](C(=O)N[C@H](C(=O)N[C@@H](CCCNC(=N)N)C(N)=O)[C@@H](C)O)C(C)C) [ACD-047.7, myristoylated, amidated peptide derived from h-HO-1]
Male C57BL mice; Example 4
  inhibition of insulin-resistance developed in the course of starvation: effectively inhibited insulin-resistance
Male C57BL mice
  inhibition of starvation-induced insulin-resistance (words, FIG. 1): inhibited significantly
Male C57BL mice; [3]
  % blood glucose decrease following 8 h starvation: 39.2%
Male C57BL mice; HPβCD/PG/Tween-80 vehicle
  Mean blood glucose after 8 h starvation (% of time 0): 60.8** %

## Myr-G-R-N-Nle-Q-K-G-Q-V-T-R-NH2 (Myristoyl-GRN[Nle]QKGQVTR-NH2; SMILES CCCCCCCCCCCCCC(=O)NCC(=O)N[C@@H](CCCNC(=N)N)C(=O)N[C@@H](CC(N)=O)C(=O)N[C@@H](CCCC)C(=O)N[C@@H](CCC(N)=O)C(=O)N[C@@H](CCCCN)C(=O)NCC(=O)N[C@@H](CCC(N)=O)C(=O)N[C@H](C(=O)N[C@H](C(=O)N[C@@H](CCCNC(=N)N)C(N)=O)[C@@H](C)O)C(C)C) [ACD-047.9]
Male C57BL mice
  inhibition of starvation-induced insulin-resistance (words, FIG. 1): inactive

## Myr-G-R-N-NorVal-Q-K-G-Q-V-T-R-NH2 (Myristoyl-GRN[Nva]QKGQVTR-NH2; SMILES CCCCCCCCCCCCCC(=O)NCC(=O)N[C@@H](CCCNC(=N)N)C(=O)N[C@@H](CC(N)=O)C(=O)N[C@@H](CCC)C(=O)N[C@@H](CCC(N)=O)C(=O)N[C@@H](CCCCN)C(=O)NCC(=O)N[C@@H](CCC(N)=O)C(=O)N[C@H](C(=O)N[C@H](C(=O)N[C@@H](CCCNC(=N)N)C(N)=O)[C@@H](C)O)C(C)C) [ACD-040.2, myristoylated, amidated peptide derived from h-HO-1]
Male C57BL mice; Example 4
  inhibition of insulin-resistance developed in the course of starvation: effectively inhibited insulin-resistance
Male C57BL mice; [3]
  % blood glucose decrease following 8 h starvation: 36.6%
Male C57BL mice; HPβCD/PG/Tween-80 vehicle
  Mean blood glucose after 8 h starvation (% of time 0): 63.4** %

## Stear-G-R-N-F-Q-K-G-Q-V-T-R-NH2 (Stearoyl-GRNFQKGQVTR-NH2; SMILES CCCCCCCCCCCCCCCCCC(=O)NCC(=O)N[C@@H](CCCNC(=N)N)C(=O)N[C@@H](CC(N)=O)C(=O)N[C@@H](Cc1ccccc1)C(=O)N[C@@H](CCC(N)=O)C(=O)N[C@@H](CCCCN)C(=O)NCC(=O)N[C@@H](CCC(N)=O)C(=O)N[C@H](C(=O)N[C@H](C(=O)N[C@@H](CCCNC(=N)N)C(N)=O)[C@@H](C)O)C(C)C) [ACD-400.3, identical to ACD-004 except N-terminal acyl group is stearoyl instead of myristoyl]
[1]; (db/db) mice with severe diabetes, injected for 7 days, vs vehicle
  blood glucose following 7-day treatment (words, FIG. 3): outstanding decrease in blood glucose
[1]; i.p. 20 mg/kg once a day for 3 days, n=9 vs vehicle n=7
  blood glucose following 3-day treatment (words, FIG. 2): outstanding decrease in blood glucose

## Stear-G-R-N-H-Q-K-G-Q-V-T-R-NH2 (Stearoyl-GRNHQKGQVTR-NH2; SMILES CCCCCCCCCCCCCCCCCC(=O)NCC(=O)N[C@@H](CCCNC(=N)N)C(=O)N[C@@H](CC(N)=O)C(=O)N[C@@H](Cc1c[nH]cn1)C(=O)N[C@@H](CCC(N)=O)C(=O)N[C@@H](CCCCN)C(=O)NCC(=O)N[C@@H](CCC(N)=O)C(=O)N[C@H](C(=O)N[C@H](C(=O)N[C@@H](CCCNC(=N)N)C(N)=O)[C@@H](C)O)C(C)C) [ACD-403.3, stearoylated, amidated peptide derived from h-HO-1]
Male C57BL mice; Example 4
  inhibition of insulin-resistance developed in the course of starvation: effectively inhibited insulin-resistance
Male C57BL mice; [3]
  % blood glucose decrease following 8 h starvation: 36.7%
Male C57BL mice; HPβCD/PG/Tween-80 vehicle
  Mean blood glucose after 8 h starvation (% of time 0): 63.3** %
